Laboratory results published in patent publication US5622955A, “Methods of treating cryptosporidium parvum” (The University of North Carolina at Chapel Hill, priority 1995, dated 1997).
Where a name gives a salt, the structure may show the parent alone. Read-outs that look alike come from different tables or passages of the source.

Columns and labels:
poly dA.dT = assay: DNA binding: increase in thermal melting of poly dA.dT
From the text: ^a Increase in thermal melting of poly dA.dT. See, W. Wilson, et al.,

G. lamblia = assay: 50% inhibitory concentration against G. lamblia; format: cell-based
From the text: ^d 50% Inhibitory concentration against G. lamblia, P. carinii
topoisomerase. See, Bell, et al., supra.

Pneumocystis carinii [1] = assay: In vivo Activity Against Pneumocystis carinii in Rats; conditions: saline = 100%
Pneumocystis carinii [2] = conditions: rat, in vivo
[3] = molecular target: T1, topoisomerase II isolated from P. carinii (Pneumocystis carinii, UniProt A0A0W4ZKQ4); assay: Inhibition of topoisomerase II isolated from P. carinii; format: biochemical
T1 construct: homodimer
T1 sequence (A0A0W4ZKQ4 1-1493): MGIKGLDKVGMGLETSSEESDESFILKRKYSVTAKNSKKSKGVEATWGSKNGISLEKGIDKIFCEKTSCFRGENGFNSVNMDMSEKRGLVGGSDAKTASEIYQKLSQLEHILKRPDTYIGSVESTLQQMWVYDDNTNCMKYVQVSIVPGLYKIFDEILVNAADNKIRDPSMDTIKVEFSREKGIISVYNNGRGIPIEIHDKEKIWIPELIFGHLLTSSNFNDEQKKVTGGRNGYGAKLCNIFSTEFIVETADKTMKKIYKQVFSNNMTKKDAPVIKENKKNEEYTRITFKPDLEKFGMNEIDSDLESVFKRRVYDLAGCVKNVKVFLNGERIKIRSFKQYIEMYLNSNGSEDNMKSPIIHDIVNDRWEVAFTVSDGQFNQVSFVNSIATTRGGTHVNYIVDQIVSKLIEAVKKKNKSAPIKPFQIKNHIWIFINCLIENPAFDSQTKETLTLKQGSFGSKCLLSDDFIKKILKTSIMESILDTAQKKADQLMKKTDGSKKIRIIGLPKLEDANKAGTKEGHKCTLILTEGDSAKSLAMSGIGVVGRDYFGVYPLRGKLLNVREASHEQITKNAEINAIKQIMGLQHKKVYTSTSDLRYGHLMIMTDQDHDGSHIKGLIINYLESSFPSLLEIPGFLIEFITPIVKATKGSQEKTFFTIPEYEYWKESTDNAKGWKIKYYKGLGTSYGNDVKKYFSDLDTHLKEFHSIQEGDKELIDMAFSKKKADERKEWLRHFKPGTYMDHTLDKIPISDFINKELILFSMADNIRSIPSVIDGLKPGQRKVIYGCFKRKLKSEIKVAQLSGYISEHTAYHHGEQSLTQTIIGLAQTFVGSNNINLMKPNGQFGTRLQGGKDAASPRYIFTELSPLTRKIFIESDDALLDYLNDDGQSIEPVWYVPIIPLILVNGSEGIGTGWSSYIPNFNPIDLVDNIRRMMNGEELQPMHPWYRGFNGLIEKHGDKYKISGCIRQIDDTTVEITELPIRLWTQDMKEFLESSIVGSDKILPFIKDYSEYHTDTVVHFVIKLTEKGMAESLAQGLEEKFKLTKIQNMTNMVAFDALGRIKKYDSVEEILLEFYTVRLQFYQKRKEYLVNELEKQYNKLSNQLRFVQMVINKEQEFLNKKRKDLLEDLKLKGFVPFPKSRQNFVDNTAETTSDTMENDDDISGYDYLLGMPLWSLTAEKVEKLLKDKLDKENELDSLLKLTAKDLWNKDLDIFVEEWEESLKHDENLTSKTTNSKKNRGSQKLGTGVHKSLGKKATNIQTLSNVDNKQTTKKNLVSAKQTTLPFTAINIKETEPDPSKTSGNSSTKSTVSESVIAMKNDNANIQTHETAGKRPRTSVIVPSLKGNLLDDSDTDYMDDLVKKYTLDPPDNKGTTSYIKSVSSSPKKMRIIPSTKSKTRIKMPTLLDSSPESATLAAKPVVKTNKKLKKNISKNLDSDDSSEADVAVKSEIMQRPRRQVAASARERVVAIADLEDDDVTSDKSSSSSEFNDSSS
From the text: ^c Inhibition of topoisomerase II isolated from P. carinii. See, C.
Dykstra, et al., J. Protozool. 38:78S (1991).

C. Parvum = assay: Inihibition of C. Parvum; format: in vivo
[4] = Giardia duodenalis; read-out: G. lamblia IC50

IC50 (G. lamblia; [4]) [nM]	SMILES	DNA binding (Increase in thermal melting of poly dA.dT) (poly dA.dT)	cyst/g Lung (Pneumocystis carinii [1]; 2.5 mg/Kg per day) [%]	Toxicity (Pneumocystis carinii [2]; 5 mg/kg/day)	cyst/g Lung (Pneumocystis carinii [1]; 5.0 mg/Kg per day) [%]	further results
790	c1cc(-c2ccc(C3=NCCCN3)cc2)nc(-c2ccc(C3=NCCCN3)cc2)n1 [Compound 3, 2,4Bis[(4tetrahydropyrimmidinyl-2-yl)phenyl]pyrimidine hydrochloride]	25	85.2	–	–	–
2000	c1ccc(-c2nccc(-c3ccc(C4=NCCN4)cc3)n2)cc1 [Compound 4, 2phenyl-4-[4(imidazolin-2-yl)phenyl]pyrimidine hydrochloride]	–	–	–	21.1	–

Continued, compound first:

SMILES	IC50 (G. lamblia; [4]) [nM]	DNA binding (Increase in thermal melting of poly dA.dT) (poly dA.dT)	cyst/g Lung (Pneumocystis carinii [1]; 2.5 mg/Kg per day) [%]	Toxicity (Pneumocystis carinii [2]; 5 mg/kg/day)	cyst/g Lung (Pneumocystis carinii [1]; 5.0 mg/Kg per day) [%]	further results
c1cc(-c2ccc(C3=NCCN3)cc2)nc(-c2ccc(C3=NCCN3)cc2)n1 [Compound 2, 2,4Bis[(4imidazolin-2-yl)phenyl]pyrimidine hydrochloride]	3000	–	–	0	2.4	–
COc1cc(C(=N)NC(C)C)ccc1-c1ccnc(-c2ccc(C(=N)NC(C)C)cc2)n1 [Compound 5, 2-(4-[N-i-propylguanyl]phenyl)-4-(2-methoxy-4-[N-i-propylguanyl]phenyl)pyrimidine]	36700	13.9	1.0	–	–	Topoisomerase P. Carinii (Inhibition of topoisomerase II isolated from P. carinii) [3]: no
Cl.N=C(N)c1ccc(-c2ccnc(-c3ccc(C(=N)N)cc3)n2)cc1 [Compound 1, 2,4-Bis-(4-guanylphenyl)pyrimidine hydrochloride]	2000	21.5	–	0	2.4	% efficacy (C. Parvum; 0.1 mg/kg/day): 30%; % efficacy (C. Parvum; 5 mg/kg/day): 68%; % efficacy (C. Parvum; 25 mg/kg/day): 50%; Toxicity (Pneumocystis carinii [2]; 10 mg/kg/day): 1+; cyst/g Lung (Pneumocystis carinii [1]; 10.0 mg/Kg per day): 0.8%
N=C(N)c1ccc(OCCCCCOc2ccc(C(=N)N)cc2)cc1 [Pentamidine, reference compound]	–	12.8	–	–	–	IC50 (G. lamblia; Giardia duodenalis, read-out: G. lamblia IC50): 2600 nM
